Test: xn = mol fraction of the nth substance listed
Conditions: 100 kPa

CC[N+](CC)(CC)CC.F[B-](F)(F)F + CC#N
Conditions	electrical conductivity [S/m]	viscosity [mPa·s]
293.15 K, x1 = 0.004202	–	0.42
293.15 K, x1 = 0.008244	–	0.438
293.15 K, x1 = 0.01214	–	0.455
293.15 K, x1 = 0.0162	–	0.474
293.15 K, x1 = 0.02	2.88	–
293.15 K, x1 = 0.0201	–	0.484
293.15 K, x1 = 0.02405	–	0.506
293.15 K, x1 = 0.02791	–	0.531
293.15 K, x1 = 0.0301	3.6	–
293.15 K, x1 = 0.03183	–	0.55
293.15 K, x1 = 0.03568	–	0.573
293.15 K, x1 = 0.03943	–	0.593
293.15 K, x1 = 0.0499	4.6	–
293.15 K, x1 = 0.0698	5.04	–
293.15 K, x1 = 0.08	5.32	–
293.15 K, x1 = 0.1	5.56	–
293.15 K, x1 = 0.1101	5.58	–
298.15 K, x1 = 0.004202	–	0.401
298.15 K, x1 = 0.008244	–	0.417
298.15 K, x1 = 0.01214	–	0.435
298.15 K, x1 = 0.0162	–	0.452
298.15 K, x1 = 0.02	2.99	–
298.15 K, x1 = 0.0201	–	0.46
298.15 K, x1 = 0.02405	–	0.48
298.15 K, x1 = 0.02791	–	0.507
298.15 K, x1 = 0.0301	3.65	–
298.15 K, x1 = 0.03183	–	0.525
298.15 K, x1 = 0.03568	–	0.546
298.15 K, x1 = 0.03943	–	0.566
298.15 K, x1 = 0.0499	4.78	–
298.15 K, x1 = 0.0698	5.24	–
298.15 K, x1 = 0.08	5.59	–
298.15 K, x1 = 0.1	5.85	–
298.15 K, x1 = 0.1101	5.88	–
303.15 K, x1 = 0.004202	–	0.383
303.15 K, x1 = 0.008244	–	0.399
303.15 K, x1 = 0.01214	–	0.415
303.15 K, x1 = 0.0162	–	0.432
303.15 K, x1 = 0.02	3.11	–
303.15 K, x1 = 0.0201	–	0.438
303.15 K, x1 = 0.02405	–	0.457
303.15 K, x1 = 0.02791	–	0.484
303.15 K, x1 = 0.0301	3.74	–
303.15 K, x1 = 0.03183	–	0.501
303.15 K, x1 = 0.03568	–	0.521
303.15 K, x1 = 0.03943	–	0.541
303.15 K, x1 = 0.0499	4.98	–
303.15 K, x1 = 0.0698	5.48	–
303.15 K, x1 = 0.08	5.85	–
303.15 K, x1 = 0.1	6.14	–
303.15 K, x1 = 0.1101	6.18	–
308.15 K, x1 = 0.004202	–	0.367
308.15 K, x1 = 0.008244	–	0.381
308.15 K, x1 = 0.01214	–	0.397
308.15 K, x1 = 0.0162	–	0.413
308.15 K, x1 = 0.02	3.22	–
308.15 K, x1 = 0.0201	–	0.419
308.15 K, x1 = 0.02405	–	0.436
308.15 K, x1 = 0.02791	–	0.463
308.15 K, x1 = 0.0301	3.88	–
308.15 K, x1 = 0.03183	–	0.478
308.15 K, x1 = 0.03568	–	0.497
308.15 K, x1 = 0.03943	–	0.517
308.15 K, x1 = 0.0499	5.18	–
308.15 K, x1 = 0.0698	5.71	–
308.15 K, x1 = 0.08	6.11	–
308.15 K, x1 = 0.1	6.43	–
308.15 K, x1 = 0.1101	6.48	–
313.15 K, x1 = 0.004202	–	0.352
313.15 K, x1 = 0.008244	–	0.365
313.15 K, x1 = 0.01214	–	0.381
313.15 K, x1 = 0.0162	–	0.396
313.15 K, x1 = 0.02	3.33	–
313.15 K, x1 = 0.0201	–	0.4
313.15 K, x1 = 0.02405	–	0.417
313.15 K, x1 = 0.02791	–	0.442
313.15 K, x1 = 0.0301	4.03	–
313.15 K, x1 = 0.03183	–	0.457
313.15 K, x1 = 0.03568	–	0.474
313.15 K, x1 = 0.03943	–	0.494
313.15 K, x1 = 0.0499	5.38	–
313.15 K, x1 = 0.0698	5.95	–
313.15 K, x1 = 0.08	6.36	–
313.15 K, x1 = 0.1	6.72	–
313.15 K, x1 = 0.1101	6.78	–
318.15 K, x1 = 0.004202	–	0.338
318.15 K, x1 = 0.008244	–	0.35
318.15 K, x1 = 0.01214	–	0.365
318.15 K, x1 = 0.0162	–	0.38
318.15 K, x1 = 0.02	3.44	–
318.15 K, x1 = 0.0201	–	0.383
318.15 K, x1 = 0.02405	–	0.399
318.15 K, x1 = 0.02791	–	0.423
318.15 K, x1 = 0.0301	4.17	–
318.15 K, x1 = 0.03183	–	0.437
318.15 K, x1 = 0.03568	–	0.454
318.15 K, x1 = 0.03943	–	0.474
318.15 K, x1 = 0.0499	5.58	–
318.15 K, x1 = 0.0698	6.18	–
318.15 K, x1 = 0.08	6.59	–
318.15 K, x1 = 0.1	7.01	–
318.15 K, x1 = 0.1101	7.08	–
323.15 K, x1 = 0.004202	–	0.326
323.15 K, x1 = 0.008244	–	0.337
323.15 K, x1 = 0.01214	–	0.35
323.15 K, x1 = 0.0162	–	0.364
323.15 K, x1 = 0.02	3.54	–
323.15 K, x1 = 0.0201	–	0.367
323.15 K, x1 = 0.02405	–	0.383
323.15 K, x1 = 0.02791	–	0.405
323.15 K, x1 = 0.0301	4.32	–
323.15 K, x1 = 0.03183	–	0.418
323.15 K, x1 = 0.03568	–	0.435
323.15 K, x1 = 0.03943	–	0.455
323.15 K, x1 = 0.0499	5.77	–
323.15 K, x1 = 0.0698	6.41	–
323.15 K, x1 = 0.08	6.84	–
323.15 K, x1 = 0.1	7.27	–
323.15 K, x1 = 0.1101	7.38	–
328.15 K, x1 = 0.02	3.65	–
328.15 K, x1 = 0.0301	4.46	–
328.15 K, x1 = 0.0499	5.96	–
328.15 K, x1 = 0.0698	6.63	–
328.15 K, x1 = 0.08	7.08	–
328.15 K, x1 = 0.1	7.56	–
328.15 K, x1 = 0.1101	7.68	–
333.15 K, x1 = 0.02	3.75	–
333.15 K, x1 = 0.0301	4.59	–
333.15 K, x1 = 0.0499	6.15	–
333.15 K, x1 = 0.0698	6.86	–
333.15 K, x1 = 0.08	7.33	–
333.15 K, x1 = 0.1	7.83	–
333.15 K, x1 = 0.1101	8.01	–
338.15 K, x1 = 0.02	3.85	–
338.15 K, x1 = 0.0301	4.73	–
338.15 K, x1 = 0.0499	6.34	–
338.15 K, x1 = 0.0698	7.08	–
338.15 K, x1 = 0.08	7.57	–
338.15 K, x1 = 0.1	8.15	–
338.15 K, x1 = 0.1101	8.28	–
343.15 K, x1 = 0.02	3.95	–
343.15 K, x1 = 0.0301	4.86	–
343.15 K, x1 = 0.0499	6.52	–
343.15 K, x1 = 0.0698	7.29	–
343.15 K, x1 = 0.08	7.8	–
343.15 K, x1 = 0.1	8.43	–
343.15 K, x1 = 0.1101	8.57	–
348.15 K, x1 = 0.02	4.04	–
348.15 K, x1 = 0.0301	4.99	–
348.15 K, x1 = 0.0499	6.7	–
348.15 K, x1 = 0.0698	7.51	–
348.15 K, x1 = 0.08	8.04	–
348.15 K, x1 = 0.1	8.73	–
348.15 K, x1 = 0.1101	8.84	–

Source: the CheMixHub ionic liquid set
